The record followed here is ChEMBL document CHEMBL1127066, “Discovery and structure-activity relationship of a series of 1-carba-1-dethiacephems exhibiting activity against methicillin-resistant Staphylococcus aureus” (J Med Chem, 1993).

What all share (assay type): functional
One test has as its system Escherichia coli. Briefly: In vitro evaluation of antimicrobial activity against Escherichia coli EC14 strain.
The test system of the next test is Enterobacter cloacae. Briefly: In vitro evaluation of antimicrobial activity against Enterobacter cloacae EB5 strain.
Another test has as its system Haemophilus influenzae. Briefly: In vitro antimicrobial activity against Haemophilus influenzae C.L. strain.
The next test relates to Klebsiella. Briefly: In vitro antimicrobial activity against Klebsiella X26 strain.
Test [1] relates to Pseudomonas aeruginosa. Briefly: Antimicrobial activity against Pseudomonas PS18 strain.
Test [2] deals with Pseudomonas aeruginosa. Briefly: In vitro antimicrobial activity against Pseudomonas X239 strain.
Test [3] relates to Staphylococcus epidermidis. Briefly: In vitro antimicrobial activity against Staphylococcus epidermidis 222 strain.
In test [4] the test system is Staphylococcus epidermidis. Briefly: In vitro antimicrobial activity against Staphylococcus epidermidis 270 strain.
The subject of test [5] is Staphylococcus aureus. Briefly: In vitro antimicrobial activity against Staphylococcus aureus S13E strain.
Test [6] concerns Staphylococcus aureus. Briefly: In vitro antimicrobial activity against Staphylococcus aureus X400 strain.
The subject of another test is Streptococcus pneumoniae. Briefly: In vitro antimicrobial activity against Streptococcus pneumoniae PARK strain.
The subject of test [7] is Staphylococcus aureus. Briefly: In vitro antimicrobial activity against Staphylococcus aureus X1.1 strain.

Take `CCOC(=O)c1csc(SC2=C(C(=O)[O-])N3C(=O)[C@@H](NC(=O)/C(=N/OCCF)c4csc(N)n4)[C@H]3CC2)n1.[Na+]`: the MIC with Escherichia coli was 0.5 mg/L; in the test with Enterobacter cloacae it was 4 mg/L; against Haemophilus influenzae, 0.06 mg/L; with Klebsiella, 0.06 mg/L; against Pseudomonas aeruginosa [1], 128 mg/L; against Pseudomonas aeruginosa [2] it was over 128 mg/L. Also, the MIC in test [3] was 2 mg/L; in test [4], 2 mg/L; in the test on Staphylococcus aureus [5], 16 mg/L; with Staphylococcus aureus [6] it was 32 mg/L; in the test on Streptococcus pneumoniae, under 0.008 mg/L; with Staphylococcus aureus [7], 1 mg/L.
As for `COC(=O)c1sc(SC2=C(C(=O)[O-])N3C(=O)[C@@H](NC(=O)/C(=N/OCCF)c4csc(N)n4)[C@H]3CC2)nc1C.[Na+]`, the MIC is 2 mg/L with Escherichia coli; 8 mg/L in the test with Enterobacter cloacae; 0.06 mg/L against Haemophilus influenzae; 0.125 mg/L against Klebsiella; over 128 mg/L against Pseudomonas aeruginosa [1]; over 128 mg/L with Pseudomonas aeruginosa [2]. The MIC was 2 mg/L in test [3]; 8 mg/L in [4]; 16 mg/L against Staphylococcus aureus [5]; 128 mg/L with Staphylococcus aureus [6]; under 0.008 mg/L in the test with Streptococcus pneumoniae; 0.25 mg/L against Staphylococcus aureus [7].
Consider `Nc1nc(/C(=N\OCCF)C(=O)N[C@@H]2C(=O)N3C(C(=O)[O-])=C(Sc4nccnc4N)CC[C@H]23)cs1.[Na+]`, for which the MIC amounted to 0.125 mg/L against Escherichia coli; 1 mg/L against Enterobacter cloacae; 0.015 mg/L against Haemophilus influenzae; 0.015 mg/L with Klebsiella; 16 mg/L against Pseudomonas aeruginosa [1]; 128 mg/L in the test with Pseudomonas aeruginosa [2]. Further, the MIC in test [3] is 1 mg/L; in test [4] it was 4 mg/L; in the test on Staphylococcus aureus [5] it was 32 mg/L; against Staphylococcus aureus [6], over 128 mg/L; against Streptococcus pneumoniae, under 0.008 mg/L; in the test with Staphylococcus aureus [7] it was 0.5 mg/L.
As for `Cn1nnnc1SC1=C(C(=O)[O-])N2C(=O)[C@@H](NC(=O)/C(=N/OCCF)c3csc(N)n3)[C@H]2CC1.[Na+]`, the MIC against Escherichia coli is 0.06 mg/L; with Enterobacter cloacae it was 0.5 mg/L; in the test on Haemophilus influenzae, 0.015 mg/L; against Klebsiella, under 0.008 mg/L; in the test with Pseudomonas aeruginosa [1], over 128 mg/L; with Pseudomonas aeruginosa [2], 16 mg/L. Moreover, the MIC is 2 mg/L in [3]; 4 mg/L in test [4]; 128 mg/L against Staphylococcus aureus [5]; over 128 mg/L in the test with Staphylococcus aureus [6]; 0.015 mg/L against Streptococcus pneumoniae; 0.5 mg/L in the test with Staphylococcus aureus [7].
`Nc1nc(/C(=N\OCCF)C(=O)N[C@@H]2C(=O)N3C(C(=O)[O-])=C(Sc4nc5cncnc5s4)CC[C@H]23)cs1.[Na+]`: the MIC against Escherichia coli is 0.25 mg/L; with Enterobacter cloacae, 2 mg/L; in the test with Haemophilus influenzae, 0.03 mg/L; against Klebsiella, 0.03 mg/L; against Pseudomonas aeruginosa [1] it was 128 mg/L; in the test with Pseudomonas aeruginosa [2], 128 mg/L. Further, the MIC is 0.5 mg/L in test [3]; 2 mg/L in test [4]; 8 mg/L against Staphylococcus aureus [5]; 16 mg/L in the test on Staphylococcus aureus [6]; under 0.008 mg/L in the test with Streptococcus pneumoniae; 0.125 mg/L against Staphylococcus aureus [7].
Turning to `CCOc1ccc2nc(SC3=C(C(=O)[O-])N4C(=O)[C@@H](NC(=O)/C(=N/OCCF)c5csc(N)n5)[C@H]4CC3)sc2c1.[Na+]`, the MIC is 1 mg/L in the test on Escherichia coli; 4 mg/L against Enterobacter cloacae; 0.125 mg/L in the test on Haemophilus influenzae; 0.06 mg/L with Klebsiella; 128 mg/L in the test with Pseudomonas aeruginosa [1]; over 128 mg/L with Pseudomonas aeruginosa [2]. The MIC in test [3] is 1 mg/L; in test [4] it was 0.5 mg/L; with Staphylococcus aureus [5], 8 mg/L; against Staphylococcus aureus [6], 8 mg/L; in the test on Streptococcus pneumoniae it was under 0.008 mg/L; in the test on Staphylococcus aureus [7], 0.25 mg/L.
With `Nc1nc(/C(=N\OCCF)C(=O)N[C@@H]2C(=O)N3C(C(=O)[O-])=C(Sc4nc(C(=O)OCc5ccccc5)cs4)CC[C@H]23)cs1.[Na+]`, the MIC with Escherichia coli came out at 0.25 mg/L; with Enterobacter cloacae it was 2 mg/L; in the test on Haemophilus influenzae, 0.03 mg/L; with Klebsiella, 0.015 mg/L; against Pseudomonas aeruginosa [1] it was 64 mg/L; in the test on Pseudomonas aeruginosa [2], 128 mg/L. Besides, the MIC is 0.5 mg/L in [3]; 2 mg/L in test [4]; 8 mg/L with Staphylococcus aureus [5]; 32 mg/L against Staphylococcus aureus [6]; under 0.008 mg/L in the test on Streptococcus pneumoniae; 0.25 mg/L with Staphylococcus aureus [7].
As to `Nc1nc(/C(=N\OCCF)C(=O)N[C@@H]2C(=O)N3C(C(=O)[O-])=C(Sc4ccccc4)CC[C@H]23)cs1.[Na+]`, the MIC was 0.5 mg/L against Escherichia coli; 4 mg/L in the test with Enterobacter cloacae; 0.03 mg/L against Haemophilus influenzae; 0.03 mg/L against Klebsiella; 64 mg/L in the test with Pseudomonas aeruginosa [1]; 128 mg/L in the test on Pseudomonas aeruginosa [2]. In addition, the MIC is 2 mg/L in [3]; 2 mg/L in test [4]; 64 mg/L in the test with Staphylococcus aureus [5]; 128 mg/L with Staphylococcus aureus [6]; 0.015 mg/L against Streptococcus pneumoniae; 0.5 mg/L in the test with Staphylococcus aureus [7].
For `CC(=O)c1sc(SC2=C(C(=O)[O-])N3C(=O)[C@@H](NC(=O)/C(=N/OCCF)c4csc(N)n4)[C@H]3CC2)nc1C.[Na+]`, the MIC against Escherichia coli was 1 mg/L; with Enterobacter cloacae it was 8 mg/L; against Haemophilus influenzae it was 0.06 mg/L; in the test with Klebsiella, 0.125 mg/L; with Pseudomonas aeruginosa [1], over 128 mg/L; in the test on Pseudomonas aeruginosa [2], over 128 mg/L. The MIC in [3] was 2 mg/L; in test [4], 8 mg/L; with Staphylococcus aureus [5] it was 32 mg/L; against Staphylococcus aureus [6], 128 mg/L; against Streptococcus pneumoniae, under 0.008 mg/L; against Staphylococcus aureus [7], 0.5 mg/L.
Take `Nc1ccc2nc(SC3=C(C(=O)[O-])N4C(=O)[C@@H](NC(=O)/C(=N/OCCF)c5csc(N)n5)[C@H]4CC3)sc2c1.[Na+]`: the MIC is 0.25 mg/L against Escherichia coli; 2 mg/L in the test with Enterobacter cloacae; 0.03 mg/L in the test on Haemophilus influenzae; 0.03 mg/L in the test on Klebsiella; 128 mg/L against Pseudomonas aeruginosa [1]; over 128 mg/L in the test with Pseudomonas aeruginosa [2]. The MIC was 1 mg/L in test [3]; 1 mg/L in [4]; 4 mg/L against Staphylococcus aureus [5]; 16 mg/L with Staphylococcus aureus [6]; under 0.008 mg/L against Streptococcus pneumoniae; 0.25 mg/L in the test on Staphylococcus aureus [7].
On to `Nc1nc(/C(=N\OCCF)C(=O)N[C@@H]2C(=O)N3C(C(=O)[O-])=C(Sc4nccs4)CC[C@H]23)cs1.[Na+]`, for which the MIC is 0.125 mg/L in the test with Escherichia coli; 1 mg/L in the test on Enterobacter cloacae; under 0.008 mg/L against Haemophilus influenzae; under 0.008 mg/L against Klebsiella; 32 mg/L against Pseudomonas aeruginosa [1]; 128 mg/L against Pseudomonas aeruginosa [2]. In addition, the MIC is 0.5 mg/L in [3]; 4 mg/L in [4]; 16 mg/L in the test with Staphylococcus aureus [5]; 64 mg/L against Staphylococcus aureus [6]; under 0.008 mg/L with Streptococcus pneumoniae; 0.25 mg/L in the test with Staphylococcus aureus [7].
For `Nc1nc(/C(=N\OCCF)C(=O)N[C@@H]2C(=O)N3C(C(=O)[O-])=C(Sc4nc5ccncc5s4)CC[C@H]23)cs1.[Na+]`, the MIC with Escherichia coli is 0.25 mg/L; with Enterobacter cloacae it was 2 mg/L; in the test on Haemophilus influenzae, 0.015 mg/L; against Klebsiella it was 0.06 mg/L; in the test on Pseudomonas aeruginosa [1], 64 mg/L; against Pseudomonas aeruginosa [2] it was over 128 mg/L. Further, the MIC in test [3] is 0.5 mg/L; in [4], 2 mg/L; in the test on Staphylococcus aureus [5] it was 4 mg/L; against Staphylococcus aureus [6] it was 8 mg/L; against Streptococcus pneumoniae, under 0.008 mg/L; in the test on Staphylococcus aureus [7], 0.125 mg/L.
As to `Cc1cnc(SC2=C(C(=O)[O-])N3C(=O)[C@@H](NC(=O)/C(=N/OCCF)c4csc(N)n4)[C@H]3CC2)s1.[Na+]`, the MIC against Escherichia coli was 0.5 mg/L; against Enterobacter cloacae, 2 mg/L; against Haemophilus influenzae, under 0.008 mg/L; against Klebsiella, 0.03 mg/L; against Pseudomonas aeruginosa [1] it was 32 mg/L; against Pseudomonas aeruginosa [2], 64 mg/L. In addition, the MIC was 1 mg/L in [3]; 4 mg/L in [4]; 32 mg/L with Staphylococcus aureus [5]; 128 mg/L with Staphylococcus aureus [6]; under 0.008 mg/L against Streptococcus pneumoniae; 0.5 mg/L in the test with Staphylococcus aureus [7].
Take `Nc1nc(/C(=N\OCCF)C(=O)N[C@@H]2C(=O)N3C(C(=O)[O-])=C(Sc4nc5cc(Cl)ccc5s4)CC[C@H]23)cs1.[Na+]`: the MIC against Escherichia coli is 0.25 mg/L; against Enterobacter cloacae, 2 mg/L; in the test with Haemophilus influenzae, 0.06 mg/L; with Klebsiella, 0.06 mg/L; in the test with Pseudomonas aeruginosa [1] it was 64 mg/L; in the test with Pseudomonas aeruginosa [2], over 128 mg/L. Moreover, the MIC in test [3] is 0.5 mg/L; in [4] it was 0.5 mg/L; against Staphylococcus aureus [5] it was 4 mg/L; in the test with Staphylococcus aureus [6], 8 mg/L; in the test on Streptococcus pneumoniae, under 0.008 mg/L; in the test on Staphylococcus aureus [7], 0.125 mg/L.
On to `Nc1nc(/C(=N\OCCF)C(=O)N[C@@H]2C(=O)N3C(C(=O)[O-])=C(Sc4nc(-c5ccccn5)cs4)CC[C@H]23)cs1.[Na+]`, for which the MIC worked out at 0.5 mg/L against Escherichia coli; 2 mg/L against Enterobacter cloacae; 0.03 mg/L against Haemophilus influenzae; 0.03 mg/L in the test on Klebsiella; 64 mg/L in the test on Pseudomonas aeruginosa [1]; 32 mg/L in the test with Pseudomonas aeruginosa [2]. Further, the MIC in [3] is 0.5 mg/L; in test [4] it was 2 mg/L; with Staphylococcus aureus [5] it was 16 mg/L; against Staphylococcus aureus [6] it was 32 mg/L; against Streptococcus pneumoniae, under 0.008 mg/L; against Staphylococcus aureus [7], 0.25 mg/L.
On to `Cn1c(SC2=C(C(=O)[O-])N3C(=O)[C@@H](NC(=O)/C(=N/OCCF)c4csc(N)n4)[C@H]3CC2)n[nH]c(=O)c1=O.[Na+]`, for which the MIC is 0.06 mg/L with Escherichia coli; 0.5 mg/L with Enterobacter cloacae; 0.03 mg/L in the test on Haemophilus influenzae; 0.06 mg/L against Klebsiella; 32 mg/L in the test with Pseudomonas aeruginosa [1]; 32 mg/L against Pseudomonas aeruginosa [2]. Also, the MIC in test [3] was found to be 2 mg/L; in [4] it was 8 mg/L; against Staphylococcus aureus [5] it was 64 mg/L; against Staphylococcus aureus [6], 128 mg/L; with Streptococcus pneumoniae it was 0.015 mg/L; in the test with Staphylococcus aureus [7], 0.5 mg/L.
